Data reported in PMC4613240, “A Series of New Ligustrazine-Triterpenes Derivatives as Anti-Tumor Agents: Design, Synthesis, and Biological Evaluation” (International Journal of Molecular Sciences, 2015).

Experiments:
[1] = test system: Bel-7402 (human hepatocellular carcinoma); test: MTT cytotoxicity assay, Bel-7402; assay type: cell-based; settings: maximal tested concentration 20.0 μM
Protocol: (§1) The cytotoxicity of ligustrazine-triterpenes derivatives was evaluated on five tumor cell lines (Bel-7402, HepG2, HT-29, Hela, and MCF-7) using the standard MTT assay. In the study, the antineoplastic drug cisplatin (DDP) was selected as the positive control. The MDCK cell line was used to test the toxicity of the ligustrazine-triterpenes derivatives and DDP.
(§2) The cell lines Bel-7402 (human hepatocellular carcinoma), HepG2 (human hepatocellular carcinoma), HT-29 (human colon carcinoma), Hela (human cervical cancer), MCF-7 (human breast cancer) were included in this study. All these cell lines were provided by the Chinese Academy of Medical Sciences & Peking Union Medical College. Cultures were maintained as monolayers in RPMI 1640 supplemented with 10% (v/v) heat inactivated fetal bovine serum and 1% (v/v) enicillin/streptomycin (Thermo Technologies, New York, NY, USA) at 37 °C in a humidified atmosphere with 5% CO2. The ligustrazine derivatives under study were dissolved in DMSO (Sigma, St. Louis, MO, USA) and added at required concentrations to the cell culture. Cells incubated without the preparations served as the control.
(§3) The cytotoxicity of the compounds was evaluated on five cancer cell lines (Bel-7402, HepG2, HT-29, Hela, MCF-7) by the standard MTT assay. In short, exponentially growing cells were seeded into 96-well plates at a density 10^4 cells/mL. The plates were incubated at 37 °C in a humidified 5% CO2 atmosphere. Cells were allowed to adhere to the surface for 24 h and then treated with serial dilutions of the compounds for 72 h. Later, aliquots of [3-(4,5-dimethylthiazol-2-yl)-2,5-diphenyltetrazolium bromide] (MTT) solution (20 μL, 5 mg/mL) were added to each well and the incubation was continued for an additional 4 h. Then the supernatant medium was thrown away. The dark blue formazan crystals formed within the healthy cells were solubilized with DMSO (150 μL) and the absorbance was measured in a plate reader (BIORAD 550 spectrophotometer, Bio-rad Life Science Development Ltd., Beijing, China) at 490 nm. Wells containing no drugs were used as control group. The IC50 values were defined as the concentration of compounds that produced a 50% reduction of surviving cells and calculated using Logit-method. Tumor cell growth inhibitory rate was calculated in the following Equation (1): % inhibition = (1 − Sample group OD/Control group OD) × 100% (1)

[2] = test system: HT-29 (human colon carcinoma); test: MTT cytotoxicity assay, HT-29; assay type: cell-based; settings: maximal tested concentration 20.0 μM
Protocol: as §1, §2, §3

[3] = test system: HepG2 (human hepatocellular carcinoma); test: MTT cytotoxicity assay, HepG2; assay type: cell-based; settings: 72 h, maximal tested concentration 20.0 μM
Protocol: as §1, §2, §3

[4] = test system: MCF-7 (human breast cancer); test: MTT cytotoxicity assay, MCF-7; assay type: cell-based; settings: maximal tested concentration 20.0 μM
Protocol: as §1, §2, §3

[5] = test system: Hela (human cervical cancer); test: MTT cytotoxicity assay, Hela; assay type: cell-based; settings: 72 h, maximal tested concentration 20.0 μM
Protocol: as §1, §2, §3

[6] = test system: Madin-Darby canine kidney cell line (MDCK); test: MTT cytotoxicity (nephrotoxicity/selectivity) assay, MDCK; assay type: cell-based; settings: maximal tested concentration 20.0 μM, toxicity to MDCK kidney cells

melting point [°C] | Structure (SMILES) | IC50 ([1]; Homo sapiens, Bel-7402, 72 h) [µM] | IC50 ([2]; Homo sapiens, HT-29, 72 h) [µM] | IC50 ([3]; Homo sapiens, HepG2, 72 h) [µM] | IC50 ([4]; Homo sapiens, MCF7, 72 h) [µM] | IC50 ([5]; Homo sapiens, HeLa) [µM] | IC50 ([6]; Canis lupus familiaris) [µM] | IC50 ([1]; 72 h) [µM] | IC50 ([2]; 72 h) [µM] | IC50 [3] [µM] | IC50 ([4]; 72 h) [µM] | IC50 [5] [µM] | IC50 [6] [µM]
 | C=C(C)[C@@H]1CC[C@]2(C(=O)O)CC[C@]3(C)[C@H](CC[C@@H]4[C@@]5(C)CC[C@H](O)C(C)(C)[C@@H]5CC[C@]43C)[C@@H]12 [BA, betulinic acid, reference compound] | > 20 | > 20 | > 20 | > 20 | > 20 |  |  |  |  |  |  | 
 | Cc1nc(C)c(COC(=O)[C@]23CCC(C)(C)CC2C2=CCC4[C@@]5(C)CC[C@H](O)C(C)(C)C5CC[C@@]4(C)[C@]2(C)CC3)nc1C (stereo partly drawn) [Compound 1a, 3β-Hydroxyolea-12-en-28-oic acid-3,5,6-trimethylpyrazin-2-methyl ester] | 10.2 | 13.2 | 14.8 | 15.2 | 14.1 | > 20 |  |  |  |  |  | 
193 to 193.7 | Cc1nc(C)c(COC(=O)[C@]23CCC(C)(C)CC2C2=CCC4[C@@]5(C)CC[C@H](OC(=O)c6nc(C)c(C)nc6C)C(C)(C)C5CC[C@@]4(C)[C@]2(C)CC3)nc1C (stereo partly drawn) [Compound 1b, 3β-Hydroxyolea-(3,5,6-trimethylpyrazin-2-carbonyl)-12-en-28-oic acid-3,5,6-trimethylpyrazin-2-methyl ester] | > 20 | > 20 | 12.1 | 10.6 | > 20 | > 20 |  |  |  |  |  | 
194.2 to 194.9 | Cc1nc(C)c(C(=O)OC2CCC3(C)C(CCC4(C)C3CC=C3C5CC(C)(C)CCC5(C(=O)OCc5ccccc5)CCC34C)C2(C)C)nc1C (stereo not drawn) [Compound 1c, 3β-Hydroxyolea-(3,5,6-trimethylpyrazin-2-carbonyl)-12-en-28-oic acid-benzyl ester] | > 20 | > 20 | > 20 | > 20 | > 20 |  |  |  |  |  |  | 
289.7 to 290.5 | Cc1nc(C)c(C(=O)OC2CCC3(C)C(CCC4(C)C3CC=C3C5CC(C)(C)CCC5(C(=O)O)CCC34C)C2(C)C)nc1C (stereo not drawn) [Compound 1d, 3β-Hydroxyolea-(3,5,6-trimethylpyrazin-2-carbonyl)-12-en-28-oic acid] | 9.28 | 8.43 | 7.94 | 5.69 | 4.37 | 16.4 |  |  |  |  |  | 
125.9 to 126.7 | Cc1nc(C)c(COC(=O)[C@]23CC[C@@H](C)[C@H](C)C2C2=CCC4[C@@]5(C)CC[C@H](O)C(C)(C)C5CC[C@@]4(C)[C@]2(C)CC3)nc1C (stereo partly drawn) [Compound 2a, 3β-Hydroxyurs-12-en-28-oic acid-3,5,6-trimethylpyrazin-2-methyl ester] | 8.01 | 17.6 | > 20 | > 20 | 20 | > 20 |  |  |  |  |  | 
168.2 to 168.9 | Cc1nc(C)c(COC(=O)[C@]23CC[C@@H](C)[C@H](C)C2C2=CCC4[C@@]5(C)CC[C@H](OC(=O)c6nc(C)c(C)nc6C)C(C)(C)C5CC[C@@]4(C)[C@]2(C)CC3)nc1C (stereo partly drawn) [Compound 2b, 3β-Hydroxyurs-(3,5,6-trimethylpyrazin-2-carbonyl)-12-en-28-oic acid-3,5,6-trimethylpyrazin-2-methyl ester] | > 20 | > 20 | > 20 | > 20 | > 20 |  |  |  |  |  |  | 
218.5 to 219.3 | Cc1nc(C)c(C(=O)OC2CCC3(C)C(CCC4(C)C3CC=C3C5C(C)C(C)CCC5(C(=O)OCc5ccccc5)CCC34C)C2(C)C)nc1C (stereo not drawn) [Compound 2c, 3β-Hydroxyurs-(3,5,6-trimethylpyrazin-2-carbonyl)-12-en-28-oic acid-benzyl ester] | > 20 | > 20 | > 20 | > 20 | > 20 |  |  |  |  |  |  | 
305.9 to 306.6 | Cc1nc(C)c(C(=O)OC2CCC3(C)C(CCC4(C)C3CC=C3C5C(C)C(C)CCC5(C(=O)O)CCC34C)C2(C)C)nc1C (stereo not drawn) [Compound 2d, 3β-Hydroxyurs-(3,5,6-trimethylpyrazin-2-carbonyl)-12-en-28-oic acid] | 10.1 | 9.7 | > 20 | 9.49 | 9.66 | > 20 |  |  |  |  |  | 
 | Cc1nc(C)c(COC(=O)[C@@]2(C)CC[C@]3(C)CC[C@]4(C)C(=CC(=O)C5[C@@]6(C)CC[C@H](O)C(C)(C)C6CC[C@]54C)C3C2)nc1C (stereo partly shown) [Compound 3a, 3-Hydroxy-11-oxoolean-12-en-30-oic acid-3,5,6-trimethylpyrazin-2-methyl ester] | > 20 | 19.9 | > 20 | > 20 | 11.2 | > 20 |  |  |  |  |  | 
 | N.N.[Cl][Pt][Cl] [DDP, cisplatin, reference compound] |  |  |  |  |  |  | 5.91 | 5.28 | 4.57 | 5.17 | 6.22 | 14.6
 | CC1(C)[C@@H](O)CC[C@]2(C)[C@H]3C(=O)C=C4[C@@H]5C[C@@](C)(C(=O)O)CC[C@]5(C)CC[C@@]4(C)[C@]3(C)CC[C@@H]12 [GA, glycyrrhetic acid, reference compound] |  |  |  |  |  |  | > 20 | > 20 | > 20 | > 20 | > 20 | 
 | CC1(C)CC[C@]2(C(=O)O)CC[C@]3(C)C(=CC[C@@H]4[C@@]5(C)CC[C@H](O)C(C)(C)[C@@H]5CC[C@]43C)[C@@H]2C1 [OA, oleanolic acid, reference compound] | > 20 | > 20 | > 20 | > 20 | > 20 |  |  |  |  |  |  | 
 | Cc1nc(C)c(C)nc1C [TMP, ligustrazine] | > 20 | > 20 | > 20 | > 20 | > 20 |  |  |  |  |  |  | 
 | C[C@H]1[C@H](C)CC[C@]2(C(=O)O)CC[C@]3(C)C(=CC[C@@H]4[C@@]5(C)CC[C@H](O)C(C)(C)[C@@H]5CC[C@]43C)[C@H]12 [UA, ursolic acid, reference compound] | > 20 | > 20 | > 20 | > 20 | > 20 |  |  |  |  |  |  | 

Structure (SMILES) | melting point [°C] | IC50 ([1]; Homo sapiens, Bel-7402, 72 h) [µM] | IC50 ([2]; Homo sapiens, HT-29, 72 h) [µM] | IC50 ([3]; Homo sapiens, HepG2, 72 h) [µM] | IC50 ([4]; Homo sapiens, MCF7, 72 h) [µM] | IC50 ([5]; Homo sapiens, HeLa) [µM] | IC50 ([6]; Canis lupus familiaris) [µM] | IC50 ([1]; 72 h) [µM] | IC50 ([2]; 72 h) [µM] | IC50 [3] [µM] | IC50 ([4]; 72 h) [µM] | IC50 [5] [µM] | IC50 [6] [µM]
C=C(C)[C@@H]1CC[C@]2(C(=O)OCc3nc(C)c(C)nc3C)CC[C@]3(C)C(CCC4[C@@]5(C)CC[C@H](OC(=O)c6nc(C)c(C)nc6C)C(C)(C)C5CC[C@]43C)C12 (stereo partly drawn) [Compound 4b, 3β-Hydroxy-(3,5,6-trimethylpyrazin-2-carbonyl)-lup-20(29)-ene-28-oic acid-3,5,6-trimethylpyrazin-2-methyl ester] | 142.1 to 142.9 | > 20 | > 20 | 13.2 | 12.9 | > 20 | > 20 |  |  |  |  |  | 
C=C(C)C1CCC2(C(=O)OCc3ccccc3)CCC3(C)C(CCC4C5(C)CCC(OC(=O)c6nc(C)c(C)nc6C)C(C)(C)C5CCC43C)C12 (stereo not drawn) [Compound 4c, 3β-Hydroxy-(3,5,6-trimethylpyrazin-2-carbonyl)-lup-20(29)-ene-28-oic acid-benzyl ester] | 162.1 to 162.8 | > 20 | > 20 | > 20 | > 20 | > 20 |  |  |  |  |  |  | 
C=C(C)C1CCC2(C(=O)O)CCC3(C)C(CCC4C5(C)CCC(OC(=O)c6nc(C)c(C)nc6C)C(C)(C)C5CCC43C)C12 (stereo not drawn) [Compound 4d, 3β-Hydroxy-(3,5,6-trimethylpyrazin-2-carbonyl)-lup-20(29)-ene-28-oic acid] | 279.5 to 280.3 | 13.3 | 8.38 | 7.42 | 6.22 | 12.2 | > 20 |  |  |  |  |  | 
